Laboratory results taken from publication PMC6442743 (Bioorganic & medicinal chemistry letters, 2018).

How the values were obtained:
human sEH = target: T1, human sEH (Homo sapiens, UniProt P34913); assay: sEH inhibition, kinetic fluorescent assay; format: biochemical
T1 sequence (P34913 1-555): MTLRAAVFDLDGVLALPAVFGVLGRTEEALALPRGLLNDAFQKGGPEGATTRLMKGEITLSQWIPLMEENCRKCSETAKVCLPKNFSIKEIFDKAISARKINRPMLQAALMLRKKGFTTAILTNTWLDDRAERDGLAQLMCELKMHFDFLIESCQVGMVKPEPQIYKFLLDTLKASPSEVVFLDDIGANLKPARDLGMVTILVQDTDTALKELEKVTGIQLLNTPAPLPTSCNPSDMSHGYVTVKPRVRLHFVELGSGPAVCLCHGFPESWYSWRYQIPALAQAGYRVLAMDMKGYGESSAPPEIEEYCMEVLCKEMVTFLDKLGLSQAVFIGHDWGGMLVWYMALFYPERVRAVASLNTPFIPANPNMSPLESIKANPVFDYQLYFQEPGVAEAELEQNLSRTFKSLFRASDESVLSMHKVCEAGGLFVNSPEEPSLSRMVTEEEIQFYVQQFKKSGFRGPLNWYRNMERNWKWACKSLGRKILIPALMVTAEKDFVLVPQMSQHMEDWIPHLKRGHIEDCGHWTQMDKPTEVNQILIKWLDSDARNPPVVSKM

[1] = Water solubility in sodium phosphate buffer; format: physicochemical; conditions: for fold more soluble in water than 3a: compared with 3a
[2] = compared with 1a, sodium phosphate buffer pH 7.4, 0.1 M, 1% DMSO

Structure (SMILES): CC12CC3CC(C)(C1)CC(NC(=S)Nc1ccccc1)(C3)C2 [1a]
- fold more potent than 1b (human sEH; compared with 1b): 2 fold
- water solubility (in words) ([1]; sodium phosphate buffer pH 7.4, 0.1 M, 1% DMSO): poorly soluble in water

Structure (SMILES): CCC(CC12CC3CC(CC(C3)C1)C2)NC(=S)Nc1ccccc1 (stereo not drawn) [1c]
- fold less potent than 1a (human sEH; compared with 1a): 25 fold

Structure (SMILES): CC12CC3CC(C)(C1)CC(NC(=S)NCc1ccccc1)(C3)C2 [1d]
- fold decrease in water solubility vs. 1a [1, 2]: 4 fold

Structure (SMILES): CC12CC3CC(C)(C1)CC(NC(=S)Nc1ccc(F)cc1)(C3)C2 [1n]
- fold more soluble in water vs. 1a [1, 2]: 4 fold

Structure (SMILES): S=C(Nc1ccccc1)NC1C2CC3CC(C2)CC1C3 (stereo not drawn) [2a]
- fold less potent than its urea analog (human sEH; compared with urea analog): 13 fold

Structure (SMILES): S=C(NCc1ccccc1)NC1C2CC3CC(C2)CC1C3 (stereo not drawn) [2b]
- fold increase of inhibition potency vs. 2a (human sEH; compared with 2a): 6.7 fold

Structure (SMILES): S=C(NCCc1ccccc1)NC1C2CC3CC(C2)CC1C3 (stereo not drawn) [2c]
- fold increase of inhibition potency vs. 2b (human sEH; compared with 2b): 4 fold

Structure (SMILES): S=C(NC12CC3CC(CC(C3)C1)C2)NC12CC3CC(CC(C3)C1)C2 [3a, di(adamantan-1yl)thiourea]
- fold more water soluble than urea of corresponding structure ([1]; compared with corresponding urea, urea data ref 17 for 3a): 4.7 fold

Structure (SMILES): S=C(Nc1ccc(C23CC4CC(CC(C4)C2)C3)cc1)Nc1ccc(C23CC4CC(CC(C4)C2)C3)cc1 [3j]
- fold decrease in inhibition potency vs. 3a (human sEH; compared with 3a): 1367 fold
- fold more soluble in water than 3a [1]: 3 fold

Structure (SMILES): S=C(NC1C2CC3CC(C2)CC1C3)NC12CC3CC(CC(C3)C1)C2 (stereo not drawn) [4a]
- fold more soluble in water than 3a [1]: 1.8 fold

Structure (SMILES): S=C(NCCNC(=S)NC12CC3CC(CC(C3)C1)C2)NC12CC3CC(CC(C3)C1)C2 [6a]
- fold less potent than the rest of thioureas in this series (human sEH; compared with the other dithioureas of series 6): 10–137 fold

Structure (SMILES): S=C(NCCCCCCCCCCNC(=S)NC12CC3CC(CC(C3)C1)C2)NC12CC3CC(CC(C3)C1)C2 [6h]
- fold difference in water solubility vs. 6a (decrease) ([1]; compared with 6a (1,2-ethylene spacer)): 3 fold

Structure (SMILES): S=C(NC1C2CC3CC(C2)CC1C3)NC1C2CC3CC(C2)CC1C3 (stereo not drawn) [compound 5]
- fold more soluble in water than 3a [1]: 1.5 fold
